Reference: patent publication EP4483954A1 (Masarykova Univerzita, priority 2023, dated 2025)

What was measured:
Assay type in all cases: biochemical
CDKL4(h) = target: T1, CDKL4(h) (Homo sapiens, UniProt Q5MAI5); assay: radiometric kinase assay (KinaseProfiler, Eurofins), CDKL4; settings: in vitro radiometric kinase assay, tested at 1 nM to 10 000 nM, no pre-incubation; read-out: inhibitory activities (IC50 values) CDKL4
T1 construct: purchased Eurofins (KinaseProfiler)
Procedure: (§1) The compounds were profiled in the radiometric assays (KinaseProfiler, Eurofins).
(§2) Briefly, kinases were diluted in the buffer shown below prior to addition to the reaction mix: • CDKL3, TAF1L: 20 mM Tris/HCl pH 8.5, 0.2 mM EDTA, 0.1% β-mercaptoethanol, 0.01% Brij-35, 5% glycerol, 1 mg/ml BSA; • Haspin: 15 mM MOPS, 0.75 mM EDTA, 0.0075% Brij-35, 3.75% Glycerol, 150 mM NaCl, 0.1% β-mercaptoethanol, 1 mg/mLBSA; • CDKL4, CLK2, PIM1, TRB2: […], 1 mM EDTA, 0.01% Brij-35, 5% Glycerol, 0.1% β-mercaptoethanol, 1 mg/mL BSA.
(§3) All compounds were prepared to 50x final assay concentration in 100% DMSO. This working stock of the compound was added to the assay well as the first component in the reaction, followed by the remaining components as detailed in the general assay protocols below. There was no pre-incubation step between the compound and the kinase prior to initiation of the reaction.
(§4) CDKL4(h) was incubated with 8 mM MOPS pH 7.0, 0.2 mM EDTA, 250 µM RRRFRPASPLRGPPK (SEQ ID NO. 1), 10 mM magnesium acetate and γ-^33P-ATP (specific activity and concentration as required). The reaction was initiated by the addition of the Mg/ATP mix. After incubation for 120 minutes at room temperature, the reaction was stopped by the addition of phosphoric acid to a concentration of 0.5%. An aliquot of the stopped reaction was spotted onto a filter and washed four times for 4 minutes in 0.425% phosphoric acid and once in methanol prior to drying and scintillation counting.
(§5) Kinase activity data were expressed as the percent remaining kinase activity in tested samples compared to the vehicle (DMSO) reactions. The compounds were tested at the following concentrations: 1 nM, 3 nM, 10 nM, 30 nM, 100 nM, 300 nM, 1000 nM, 3000 nM, and 10 000 nM; IC50 values and curve fits were then obtained.

TAF1L(h) = target: T2, TAF1L(h) (Homo sapiens, UniProt Q8IZX4); assay: radiometric kinase assay (KinaseProfiler, Eurofins), TAF1L; settings: in vitro radiometric kinase assay, tested at 1 nM to 10 000 nM, no pre-incubation; read-out: inhibitory activities (IC50 values) TAF1L
T2 construct: purchased Eurofins (KinaseProfiler)
Procedure: as §1, §2, §3
as §4, with “TAF1L(h)” for “CDKL4(h)”, “20” for “8”, “Tris/HCl” for “MOPS”, “8.5,” for “7.0,”
as §5

TRB2(h) = target: T3, TRB2(h) (Homo sapiens, UniProt Q92519); assay: radiometric kinase assay (KinaseProfiler, Eurofins), TRB2; settings: in vitro radiometric kinase assay, tested at 1 nM to 10 000 nM, no pre-incubation; read-out: inhibitory activities (IC50 values) TRB2
T3 construct: purchased Eurofins (KinaseProfiler)
T3 sequence (Q92519 1-343): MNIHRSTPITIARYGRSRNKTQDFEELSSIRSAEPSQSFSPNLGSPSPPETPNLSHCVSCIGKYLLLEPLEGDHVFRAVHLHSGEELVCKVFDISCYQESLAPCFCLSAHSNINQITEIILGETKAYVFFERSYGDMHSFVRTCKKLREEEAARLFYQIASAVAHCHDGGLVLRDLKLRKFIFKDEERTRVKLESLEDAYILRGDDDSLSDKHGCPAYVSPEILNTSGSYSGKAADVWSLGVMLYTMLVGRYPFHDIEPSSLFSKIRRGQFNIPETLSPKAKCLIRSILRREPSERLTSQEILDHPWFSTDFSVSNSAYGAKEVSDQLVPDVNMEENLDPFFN
Procedure: as §1, §2, §3
as §4, with “TRB2(h)” for “CDKL4(h)”
as §5

DYRK2 (h) = target: T4, DYRK2 (h) (Homo sapiens, UniProt Q92630); assay: radiometric kinase assay (KinaseProfiler, Eurofins), DYRK2; settings: in vitro radiometric kinase assay, tested at 1 nM to 10 000 nM, no pre-incubation; read-out: inhibitory activities (IC50 values) DYRK2
T4 construct: purchased Eurofins (KinaseProfiler)
T4 sequence (Q92630 1-601): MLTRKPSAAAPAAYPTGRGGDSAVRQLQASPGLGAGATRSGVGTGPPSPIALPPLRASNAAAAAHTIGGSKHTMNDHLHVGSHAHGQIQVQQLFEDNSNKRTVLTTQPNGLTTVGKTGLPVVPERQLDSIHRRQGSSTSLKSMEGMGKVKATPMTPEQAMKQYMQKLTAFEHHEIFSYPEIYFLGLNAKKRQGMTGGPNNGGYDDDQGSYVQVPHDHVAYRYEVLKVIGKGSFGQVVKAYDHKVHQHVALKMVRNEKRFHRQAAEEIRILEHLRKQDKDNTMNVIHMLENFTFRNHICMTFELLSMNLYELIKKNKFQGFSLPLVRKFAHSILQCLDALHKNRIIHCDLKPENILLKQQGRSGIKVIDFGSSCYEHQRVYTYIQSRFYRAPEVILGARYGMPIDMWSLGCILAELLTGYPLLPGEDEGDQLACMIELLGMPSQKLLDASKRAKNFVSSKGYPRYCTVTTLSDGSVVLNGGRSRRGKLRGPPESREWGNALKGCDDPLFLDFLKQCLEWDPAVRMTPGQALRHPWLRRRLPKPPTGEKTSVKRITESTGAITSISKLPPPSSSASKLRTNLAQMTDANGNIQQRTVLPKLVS
Procedure: as §1, §3
DYRK2 (h) was incubated with 8 mM MOPS pH 7.0, 0.2 mM EDTA, 2 mg/mL casein, 10 mM magnesium acetate and γ-^33P-ATP (specific activity and concentration as required). The reaction was initiated by the addition of the Mg/ATP mix. After incubation for 40 minutes at room temperature, the reaction was stopped by the addition of phosphoric acid to a concentration of 0.5%. An aliquot of the reaction was then spotted onto a filter and washed four times for 4 minutes in 0.425% phosphoric acid and once in methanol prior to drying and scintillation counting.
as §5

T1 sequence (Q5MAI5 whole entry): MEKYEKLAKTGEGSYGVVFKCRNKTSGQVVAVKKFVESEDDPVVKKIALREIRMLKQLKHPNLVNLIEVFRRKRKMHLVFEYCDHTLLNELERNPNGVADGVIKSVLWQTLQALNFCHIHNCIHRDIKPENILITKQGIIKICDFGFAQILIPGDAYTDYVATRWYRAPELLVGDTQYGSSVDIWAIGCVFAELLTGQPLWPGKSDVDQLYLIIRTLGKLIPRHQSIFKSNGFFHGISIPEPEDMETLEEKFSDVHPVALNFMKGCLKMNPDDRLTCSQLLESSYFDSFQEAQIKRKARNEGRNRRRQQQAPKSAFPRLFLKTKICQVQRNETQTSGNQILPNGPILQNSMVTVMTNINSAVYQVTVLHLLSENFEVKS
T2 sequence (Q8IZX4 whole entry): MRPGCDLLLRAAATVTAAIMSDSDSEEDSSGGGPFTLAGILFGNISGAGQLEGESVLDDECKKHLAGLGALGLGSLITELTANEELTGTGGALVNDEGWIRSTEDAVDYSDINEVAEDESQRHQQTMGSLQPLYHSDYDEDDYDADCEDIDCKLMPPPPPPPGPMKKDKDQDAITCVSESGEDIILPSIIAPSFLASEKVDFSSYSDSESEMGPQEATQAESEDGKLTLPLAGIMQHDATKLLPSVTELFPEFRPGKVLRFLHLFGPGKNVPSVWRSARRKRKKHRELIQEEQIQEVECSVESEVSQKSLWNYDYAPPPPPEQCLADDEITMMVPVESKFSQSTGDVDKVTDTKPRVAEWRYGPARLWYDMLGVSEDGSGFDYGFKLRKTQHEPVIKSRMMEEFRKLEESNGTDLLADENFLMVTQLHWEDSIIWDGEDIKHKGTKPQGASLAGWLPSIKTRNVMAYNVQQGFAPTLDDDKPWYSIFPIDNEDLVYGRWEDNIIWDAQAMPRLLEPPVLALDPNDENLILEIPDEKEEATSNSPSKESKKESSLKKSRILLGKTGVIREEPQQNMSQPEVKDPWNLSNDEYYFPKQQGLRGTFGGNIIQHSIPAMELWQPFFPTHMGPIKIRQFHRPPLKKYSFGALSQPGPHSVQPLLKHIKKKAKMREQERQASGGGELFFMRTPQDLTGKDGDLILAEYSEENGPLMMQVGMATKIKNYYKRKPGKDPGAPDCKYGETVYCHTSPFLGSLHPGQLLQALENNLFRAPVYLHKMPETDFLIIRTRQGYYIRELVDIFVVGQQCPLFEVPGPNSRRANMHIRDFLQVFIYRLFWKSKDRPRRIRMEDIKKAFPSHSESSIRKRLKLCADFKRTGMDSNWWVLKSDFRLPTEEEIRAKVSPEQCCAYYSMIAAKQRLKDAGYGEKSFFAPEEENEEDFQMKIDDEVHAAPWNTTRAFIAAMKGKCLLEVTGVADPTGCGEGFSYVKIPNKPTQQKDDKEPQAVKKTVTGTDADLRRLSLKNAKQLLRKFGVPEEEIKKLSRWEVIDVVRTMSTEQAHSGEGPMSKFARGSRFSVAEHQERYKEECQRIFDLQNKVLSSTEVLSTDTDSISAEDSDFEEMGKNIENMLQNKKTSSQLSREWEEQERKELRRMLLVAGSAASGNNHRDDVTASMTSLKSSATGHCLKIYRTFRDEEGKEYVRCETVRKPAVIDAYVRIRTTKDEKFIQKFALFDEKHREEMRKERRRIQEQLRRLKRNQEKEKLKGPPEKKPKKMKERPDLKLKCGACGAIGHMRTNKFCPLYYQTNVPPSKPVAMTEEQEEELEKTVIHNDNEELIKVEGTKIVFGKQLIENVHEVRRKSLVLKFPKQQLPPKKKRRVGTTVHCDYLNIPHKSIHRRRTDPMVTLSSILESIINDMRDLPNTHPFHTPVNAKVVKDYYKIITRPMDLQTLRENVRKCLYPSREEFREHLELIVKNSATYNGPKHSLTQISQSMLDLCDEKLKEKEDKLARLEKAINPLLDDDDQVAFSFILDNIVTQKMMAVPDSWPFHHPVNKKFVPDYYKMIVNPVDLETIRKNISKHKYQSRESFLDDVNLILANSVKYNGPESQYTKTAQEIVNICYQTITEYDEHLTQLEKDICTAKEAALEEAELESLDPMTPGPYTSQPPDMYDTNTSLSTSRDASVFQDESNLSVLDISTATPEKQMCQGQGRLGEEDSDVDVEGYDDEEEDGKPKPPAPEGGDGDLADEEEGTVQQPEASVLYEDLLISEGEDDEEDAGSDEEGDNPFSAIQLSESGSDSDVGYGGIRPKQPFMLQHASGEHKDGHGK

| Structure (SMILES) | IC50 (CDKL4(h)) | IC50 (TAF1L(h)) | IC50 (TRB2(h)) | IC50 (DYRK2 (h)) |
| --- | --- | --- | --- | --- |
| c1ccc(-c2csc3ccc(-c4cnoc4)nc23)cc1 [Preparative Example 124, 4-(3-phenylthieno[3,2-b]pyridin-5-yl)isoxazole] | 3000 to 10000 nM | 3000 to 10000 nM | 3000 to 10000 nM | 3000 to 10000 nM |
| Cn1cc(-c2ccc3scc(-c4ccncc4)c3n2)c(NC(=O)OC(C)(C)C)n1 [Preparative Example 83, tert-butyl(1-methyl-4-(3-(pyridin-4-yl)thieno[3,2-b]pyridin-5-yl)-1H-pyrazol-3-yl)carbamate] | 500 to 3000 nM | 500 to 3000 nM | 500 to 3000 nM | 3000 to 10000 nM |
| Cn1cc(-c2ccc3scc(C(O)c4ccccc4)c3n2)cn1 (stereo not shown) [Preparative Example 74] | 100 to 499 nM | 100 to 499 nM | 500 to 3000 nM | 3000 to 10000 nM |
| Cn1cc(-c2ccc3scc(-c4ccnc(C#N)c4)c3n2)cn1 | 100 to 499 nM | 100 to 499 nM | 100 to 499 nM | 500 to 3000 nM |
| Cn1cc(-c2ccc3scc(-c4cnn(Cc5ccccc5)c4)c3n2)cn1 | 100 to 499 nM | 100 to 499 nM | 500 to 3000 nM | 3000 to 10000 nM |
| Cn1ccc(-c2cc(Cl)c3scc(-c4ccncc4)c3n2)n1 [Preparative Example 163, 7-chloro-5-(1-methyl-1H-pyrazol-3-yl)-3-(pyridin-4-yl)thieno[3,2-b]pyridine] | 500 to 3000 nM | 500 to 3000 nM | 500 to 3000 nM | 3000 to 10000 nM |
| c1ccc(-c2csc3ccc(-c4ccoc4)nc23)cc1 [Preparative Example 123, 5-(furan-3-yl)-3-phenylthieno[3,2-b]pyridine] | 3000 to 10000 nM | 3000 to 10000 nM | 3000 to 10000 nM | 3000 to 10000 nM |
| Cn1cc(-c2ccc3scc(C4=CCNCC4)c3n2)cn1 [Preparative Example 9, 5-(1-methyl-1H-pyrazol-4-yl)-3-(1,2,3,6-tetrahydropyridin-4-yl)-thieno[3.2-b]pyridine] | 500 to 3000 nM | 500 to 3000 nM | 3000 to 10000 nM | 3000 to 10000 nM |
| c1cc(-c2csc3ccc(Nc4cc[nH]n4)nc23)ccn1 [Preparative Example 101, N-(1H-pyrazol-3-yl)-3-(pyridin-4-yl)thieno[3,2-b]pyridin-5-amine] | 100 to 499 nM | 20 to 99 nM | 20 to 99 nM | 500 to 3000 nM |

Next, values leading:

| IC50 (CDKL4(h)) | IC50 (TAF1L(h)) | IC50 (TRB2(h)) | IC50 (DYRK2 (h)) | Structure (SMILES) |
| --- | --- | --- | --- | --- |
| 500 to 3000 nM | 500 to 3000 nM | 500 to 3000 nM | 500 to 3000 nM | Cc1sc2ccc(-c3cnn(C)c3)nc2c1-c1ccncc1 [Preparative Example 142, 2-methyl-5-(1-methyl-1H-pyrazol-4-yl)-3-(pyridin-4-yl)thieno[3,2-b]pyridine] |
| 500 to 3000 nM | 500 to 3000 nM | 500 to 3000 nM | 3000 to 10000 nM | Cn1nccc1-c1ccc2scc(-c3ccncc3)c2n1 [Preparative Example 90, 5-(1-methyl-1H-pyrazol-5-yl)-3-(pyridin-4-yl)thieno[3,2-b]pyridine] |
| 500 to 3000 nM | 100 to 499 nM | 500 to 3000 nM | 500 to 3000 nM | Cn1cncc1-c1ccc2scc(-c3ccncc3)c2n1 [Preparative Example 91, 5-(1-methyl-1H-imidazol-5-yl)-3-(pyridin-4-yl)thieno[3,2-b]pyridine] |
| 100 to 499 nM | 100 to 499 nM | 500 to 3000 nM | 100 to 499 nM | COc1cc(-c2csc3ccc(-c4cnn(C)c4)nc23)ccn1 [Preparative Example 17, 3-(2-methoxypyridin-4-yl)-5-(1-methyl-1H-pyrazol-4-yl)thieno[3.2-b]pyridine] |
| 3000 to 10000 nM | 500 to 3000 nM | 3000 to 10000 nM | 3000 to 10000 nM | Cn1ccc(-c2ccc3scc(-c4ccncc4)c3n2)n1 [Preparative Example 86, 5-(1-methyl-1H-pyrazol-3-yl)-3-(pyridin-4-yl)thieno[3,2-b]pyridine] |
| 100 to 499 nM | 100 to 499 nM | 100 to 499 nM | 500 to 3000 nM | Cn1cc(-c2ccc3scc(-c4ccncc4F)c3n2)cn1 [Preparative Example 36, 3-(3-fluoropyridin-4-yl)-5-(1-methyl-1H-pyrazol-4-yl)thieno[3,2-b]pyridine] |
| 500 to 3000 nM | 3000 to 10000 nM | 3000 to 10000 nM | 3000 to 10000 nM | FC(F)(F)n1cc(-c2ccc3scc(-c4ccncc4)c3n2)cn1 [Preparative Example 78, 3-(pyridin-4-yl)-5-(1-(trifluoromethyl)-1H-pyrazol-4-yl)thieno[3,2-b]pyridine] |
| 3000 to 10000 nM | 3000 to 10000 nM | 500 to 3000 nM | 3000 to 10000 nM | CC(C)n1cc(-c2ccc3scc(-c4ccncc4)c3n2)cn1 [Preparative Example 79, 5-(1-isopropyl-1H-pyrazol-4-yl)-3-(pyridin-4-yl)thieno[3,2-b]pyridine] |
| 20 to 99 nM | 20 to 99 nM | 20 to 99 nM | 100 to 499 nM | Cn1cc(-c2ccc3scc(-c4ccns4)c3n2)cn1 [Preparative Example 67, 3-(isothiazol-5-yl)-5-(1-methyl-1H-pyrazol-4-yl)thieno[3,2-b]pyridine] |
| 3000 to 10000 nM | 500 to 3000 nM | 3000 to 10000 nM | 500 to 3000 nM | Cn1cc(-c2ccc3scc(-c4ccncc4C#N)c3n2)cn1 [Preparative Example 34, 4-(5-(1-methyl-1H-pyrazol-4-yl)thieno[3,2-b]pyridin-3-yl)nicotino-nitrile] |
